Assay results: patent US9924717B2, “Molecules having pesticidal utility, and intermediates, compositions, and processes, related thereto” (Dow AgroSciences LLC, priority 2016, dated 2018)

Columns and labels:
Format in all cases: in vivo
[1] = test system: Beet Armyworm (Spodoptera exigua, LAPHEG) (BAW); test: Bioassays on Beet Armyworm (BAW), 128-well diet tray assay; conditions: Table ABC rating, Beet Armyworm
Description: (§1) Example A: Bioassays on Beet Armyworm (Spodoptera exigua, LAPHEG) (“BAW”), Corn Earworm (Helicoverpa zea, Helize) (“CEW”), and Cabbage Looper (Trichoplusia ni, TRIPNI) (“CL”)
(§2) Certain molecules disclosed in this document were tested against BAW, CEW, and CL using procedures described in the following examples. In the reporting of the results, the “BAW, CEW, & CL Rating Table” was used (See Table Section).
Bioassays on BAW were conducted using a 128-well diet tray assay. one to five second instar BAW larvae were placed in each well (3 mL) of the diet tray that had been previously filled with 1 mL of artificial diet to which 50 μg/cm^2 of the test molecule (dissolved in 50 μL of 90:10 acetone-water mixture) had been applied (to each of eight wells) and then allowed to dry. Trays were covered with a clear self-adhesive cover and held at 25° C., 14:10 light-dark for five to seven days. Percent mortality was recorded for the larvae in each well; activity in the eight wells was then averaged. The results are indicated in the table entitled “Table ABC: Biological Results” (See Table Section).
(§3) Bioassays on BAW and CL were conducted according to the procedures outlined in Example A: Bioassays on Beet Armyworm (“BAW”) and Cabbage Looper (“CL”) using the indicated concentrations.

[2] = test system: Cabbage Looper (Trichoplusia ni, TRIPNI) (CL); test: Bioassays on Cabbage Looper (CL), 128-well diet tray assay; conditions: Table ABC rating, Cabbage Looper
Description: as §1, §2
Bioassays on CL were conducted using a 128-well diet tray assay. one to five second instar CL larvae were placed in each well (3 mL) of the diet tray that had been previously filled with 1 mL of artificial diet to which 50 μg/cm^2 of the test molecule (dissolved in 50 μL of 90:10 acetone-water mixture) had been applied (to each of eight wells) and then allowed to dry. Trays were covered with a clear self-adhesive cover and held at 25° C., 14:10 light-dark for five to seven days. Percent mortality was recorded for the larvae in each well; activity in the eight wells was then averaged. The results are indicated in the table entitled “Table ABC: Biological Results” (See Table Section).
as §3

[3] = test system: Yellow Fever Mosquito (Aedes aegypti, AEDSAE) (YFM); test: Bioassays on Yellow Fever Mosquito (YFM), 96-well plate larval assay; conditions: Table ABC rating
Description: Example C: Bioassays on Yellow Fever Mosquito (Aedes aegypti, AEDSAE) (“YFM”)
Certain molecules disclosed in this document were tested against YFM using procedures described in the following paragraph. In the reporting of the results, the “GPA & YFM Rating Table” was used (See Table Section).
Master plates containing 400 μg of a molecule dissolved in 100 μL of dimethyl sulfoxide (DMSO) (equivalent to a 4000 ppm solution) are used. A master plate of assembled molecules contains 15 μL per well. To this plate, 135 μL of a 90:10 water:acetone mixture is added to each well. A robot (Biomek® NXP Laboratory Automation Workstation) is programmed to dispense 15 μL aspirations from the master plate into an empty 96-well shallow plate (“daughter” plate). There are 6 reps (“daughter” plates) created per master. The created daughter plates are then immediately infested with YFM larvae.
The day before plates are to be treated, mosquito eggs are placed in Millipore water containing liver powder to begin hatching (4 g. into 400 mL). After the daughter plates are created using the robot, they are infested with 220 μL of the liver powder/larval mosquito mixture (about 1 day-old larvae). After plates are infested with mosquito larvae, a non-evaporative lid is used to cover the plate to reduce drying. Plates are held at room temperature for 3 days prior to grading. After 3 days, each well is observed and scored based on mortality. The results are indicated in the table entitled “Table ABC: Biological Results” (See Table Section).

SMILES	pest or weed control at 50 µg/cm2 [1] [%]	pest or weed control at 50 µg/cm2 [2] [%]	YFM [3]
CC(NC(=O)c1ccc(/C(F)=C/C(c2cc(Br)cc(Br)c2)C(F)(F)F)cc1C(F)(F)F)C(F)(F)F (stereo not drawn) [F28, (Z)-4-(3-(3,5-Dibromophenyl)-1,4,4,4-tetrafluorobut-1-en-1-yl)-2-(trifluoromethyl)-N-(1,1,1-trifluoropropan-2-yl)benzamide]	50 to 100	50 to 100	A (80-100)
O=C(NC1CCC(F)(F)CC1)c1ccc(/C(F)=C/C(c2ccc(Cl)c(Cl)c2)C(F)(F)F)cc1C(F)(F)F (stereo not drawn) [F24, (Z)-4-(3-(3,4-Dichlorophenyl)-1,4,4,4-tetrafluorobut-1-en-1-yl)-N-(4,4-difluorocyclohexyl)-2-(trifluoromethyl)benzamide]	50 to 100	50 to 100	A (80-100)
O=C(NC1CCC(F)(F)CC1)c1ccc(/C(F)=C/C(c2cc(Br)cc(Br)c2)C(F)(F)F)cc1C(F)(F)F (stereo not drawn) [F40, (Z)-4-(3-(3,5-Dibromophenyl)-1,4,4,4-tetrafluorobut-1-en-1-yl)-N-(4,4-difluorocyclohexyl)-2-(trifluoromethyl)benzamide]	50 to 100	50 to 100	A (80-100)
O=C(NC1CCC(F)(F)CC1)c1ccc(/C(F)=C/C(c2cc(Cl)c(F)c(Cl)c2)C(F)(F)F)cc1C(F)(F)F (stereo not drawn) [F41, (Z)-4-(3-(3,5-Dichloro-4-fluorophenyl)-1,4,4,4-tetrafluorobut-1-en-1-yl)-N-(4,4-difluorocyclohexyl)-2-(trifluoromethyl)benzamide]	50 to 100	50 to 100	A (80-100)
CC(NC(=O)c1ccc(/C(F)=C/C(c2ccc(Br)c(Br)c2)C(F)(F)F)cc1C(F)(F)F)C(F)(F)F (stereo not drawn) [F45, 4-((Z)-3-(3,4-Dibromophenyl)-1,4,4,4-tetrafluorobut-1-en-1-yl)-2-(trifluoromethyl)-N-(1,1,1-trifluoropropan-2-yl)benzamide]	50 to 100	50 to 100	B (More than 0-Less than 80)
CN(CC(F)(F)F)C(=S)c1ccc(/C(F)=C/C(c2cc(Cl)c(Cl)c(Cl)c2)C(F)(F)F)cc1C(F)(F)F (stereo not drawn) [F34, (Z)—N-Methyl-4-(1,4,4,4-tetrafluoro-3-(3,4,5-trichlorophenyl)but-1-en-1-yl)-N-(2,2,2-trifluoroethyl)-2-(trifluoromethyl)benzothioamide]	50 to 100	50 to 100	B (More than 0-Less than 80)
O=C(NC1CC1)c1ccc(/C(F)=C/C(c2cc(Cl)cc(Cl)c2)C(F)(F)F)cc1C(F)(F)F (stereo not drawn) [F23, (Z)—N-Cyclopropyl-4-(3-(3,5-dichlorophenyl)-1,4,4,4-tetrafluorobut-1-en-1-yl)-2-(trifluoromethyl)benzamide]	50 to 100	50 to 100	A (80-100)
C[C@@H](NC(=O)c1ccc(/C(F)=C/C(c2ccc(Cl)c(Cl)c2)C(F)(F)F)cc1C(F)(F)F)C(F)(F)F (stereo partly drawn) [F16, 4-((Z)-3-(3,4-Dichlorophenyl)-1,4,4,4-tetrafluorobut-1-en-1-yl)-2-(trifluoromethyl)-N—((R)-1,1,1-trifluoropropan-2-yl)benzamide]	50 to 100	50 to 100	A (80-100)
O=C(NCC(F)(F)F)c1ccc(/C(F)=C/C(c2cc(Cl)c(Cl)c(Cl)c2)C(F)(F)F)c2ccccc12 (stereo not drawn) [PF1, (Z)-4-(1,4,4,4-Tetrafluoro-3-(3,4,5-trichlorophenyl)but-1-en-1-yl)-N-(2,2,2-trifluoroethyl)-1-naphthamide]	50 to 100	50 to 100	A (80-100)
O=C(NC1CC1)c1ccc(/C(F)=C/C(c2cc(Cl)c(Br)c(Cl)c2)C(F)(F)F)cc1C(F)(F)F (stereo not drawn) [F22, (Z)-4-(3-(4-Bromo-3,5-dichlorophenyl)-1,4,4,4-tetrafluorobut-1-en-1-yl)-N-cyclopropyl-2-(trifluoromethyl)benzamide]	50 to 100	50 to 100	A (80-100)
CC(NC(=O)c1ccc(/C(F)=C/C(c2cc(Cl)c(F)c(Cl)c2)C(F)(F)F)cc1C(F)(F)F)C(F)(F)F (stereo not drawn) [F27, (Z)-4-(3-(3,5-Dichloro-4-fluorophenyl)-1,4,4,4-tetrafluorobut-1-en-1-yl)-2-(trifluoromethyl)-N-(1,1,1-trifluoropropan-2-yl)benzamide]	50 to 100	50 to 100	A (80-100)
CN(CC(F)(F)F)C(=O)c1ccc(/C(F)=C/C(c2cc(Cl)c(Cl)c(Cl)c2)C(F)(F)F)cc1C(F)(F)F (stereo not drawn) [F29, (Z)—N-Methyl-4-(1,4,4,4-tetrafluoro-3-(3,4,5-trichlorophenyl)but-1-en-1-yl)-N-(2,2,2-trifluoroethyl)-2-(trifluoromethyl)benzamide]	50 to 100	50 to 100	A (80-100)
F/C(=C\C(c1cc(Cl)c(Cl)c(Cl)c1)C(F)(F)F)c1ccc(C(=S)NCC(F)(F)F)c(C(F)(F)F)c1 (stereo not drawn) [F33, (Z)-4-(1,4,4,4-tetrafluoro-3-(3,4,5-trichlorophenyl)but-1-en-1-yl)-N-(2,2,2-trifluoroethyl)-2-(trifluoromethyl)benzothioamide]	50 to 100	50 to 100	B (More than 0-Less than 80)
O=C(NC1CCC(F)(F)CC1)c1ccc(/C(F)=C/C(c2cc(Cl)c(Br)c(Cl)c2)C(F)(F)F)cc1C(F)(F)F (stereo not drawn) [F21]	50 to 100	50 to 100	A (80-100)
O=C(NCc1ccc(Cl)nc1)c1ccc(/C(F)=C/C(c2cc(Cl)c(Cl)c(Cl)c2)C(F)(F)F)cc1C(F)(F)F (stereo not drawn) [F11, (Z)—N-((6-Chloropyridin-3-yl)methyl)-4-(1,4,4,4-tetrafluoro-3-(3,4,5-trichlorophenyl)but-1-en-1-yl)-2-(trifluoromethyl)benzamide]	50 to 100	50 to 100	A (80-100)
O=C(NC1CC1)c1ccc(/C(F)=C/C(c2cc(Cl)c(F)c(Cl)c2)C(F)(F)F)cc1C(F)(F)F (stereo not drawn) [F43, (Z)—N-Cyclopropyl-4-(3-(3,5-dichloro-4-fluorophenyl)-1,4,4,4-tetrafluorobut-1-en-1-yl)-2-(trifluoromethyl)benzamide]	50 to 100	50 to 100	A (80-100)
O=C(Nc1ccc(Cl)nc1)c1ccc(/C(F)=C/C(c2cc(Cl)c(Cl)c(Cl)c2)C(F)(F)F)cc1C(F)(F)F (stereo not drawn) [F26]	50 to 100	50 to 100	A (80-100)
O=C(NC1CC1)c1ccc(/C(F)=C/C(c2cc(Br)c(Cl)c(Br)c2)C(F)(F)F)cc1C(F)(F)F (stereo not drawn) [F12, (Z)—N-cyclopropyl-4-(3-(3,5-dibromo-4-chlorophenyl)-1,4,4,4-tetrafluorobut-1-en-1-yl)-2-(trifluoromethyl)benzamide]	50 to 100	50 to 100	A (80-100)
O=C(NCc1ccccn1)c1ccc(/C(F)=C/C(c2cc(Cl)c(Cl)c(Cl)c2)C(F)(F)F)cc1C(F)(F)F (stereo not drawn) [F51, (Z)—N-(Pyridin-2-ylmethyl)-4-(1,4,4,4-tetrafluoro-3-(3,4,5-trichlorophenyl)but-1-en-1-yl)-2-(trifluoromethyl)benzamide]	50 to 100	50 to 100	A (80-100)
O=C(NC1CC1)c1ccc(/C(F)=C/C(c2cc(Br)cc(Br)c2)C(F)(F)F)cc1C(F)(F)F (stereo not drawn) [F42, (Z)—N-Cyclopropyl-4-(3-(3,5-dibromophenyl)-1,4,4,4-tetrafluorobut-1-en-1-yl)-2-(trifluoromethyl)benzamide]	50 to 100	50 to 100	A (80-100)
